Results: BindingDB's records for doi:10.1016/j.ejmech.2021.113585 (Fudan University, 2021)

Experiment: Agonist activity at RORgammat in C57 mouse CD4+ T cells assessed as induction of Th17 cells differentiation by measuring increase in IL17 production measured after 4 days by flow cytometry analysis

Structure (SMILES) | EC50
CC(=O)N1CCN(c2ccc3c(c2)CCN(S(=O)(=O)N(C)Cc2ccccc2C(F)(F)F)C3)CC1 | 1.12 µM
CC(=O)N1CCN(c2ccc3c(c2)CCN(S(=O)(=O)N(C)Cc2c(F)cccc2Cl)C3)CC1 | 0.22 µM
CC(=O)N1CCN(c2ccc3c(c2)CCN(S(=O)(=O)N(C)Cc2ccccc2Cl)C3)CC1 | 0.23 µM
